Reference: patent US20180214411A1, “COMPOSITION COMPRISING SATIETY-INDUCING PARTICLES” (PERORA GMBH, priority 2015, published 2018)

Assay: tryptophan release / dissolution in fasted-state simulated gastric fluid (FaSSGF)
Format: physicochemical
Conditions: 30 mg powder in 22 mL FaSSGF, 37° C., agitated
Experimental: 30 mg of tryptophan powder were suspended in 22 mL FaSSGF at 37° C. and agitated (shaker ST5 from CAT, Germany). Aliquots were removed at time intervals of 5 min, and tryptophan concentration was quantified using absorption measurement at a wavelength of 280 nm in a NanoDrop® 2000 device (Thermo Scientific, USA).

In the case of N[C@@H](Cc1c[nH]c2ccccc12)C(=O)O [tryptophan powder, L-Tryptophan], the “time after which tryptophan was quantitatively dissolved” value is reported as 10 min.
